Measured values reported in patent US10858344B2, “Hydantoin containing deoxyuridine triphosphatase inhibitors” (CV6 Therapeutics (NI) Limited, priority 2016, dated 2020).

Columns and labels:
[1] = tested on: colorectal (HCT116 and SW620) cell line models; experiment: MTS growth inhibition assay; format: cell-based; conditions: 5-FU between 0 and 100 μmol/L; both colorectal cancer cell lines
Description: The Cell Titer AQueous MTS assay (Promega) is carried out according to the manufacturers guidelines. […] The combination effect is determined by the combination index (CI) method utilizing Calcusyn software (Biosoft, Ferguson, Mo.). Fraction affected (FA) is calculated from the percent growth inhibition: FA=[…]. CI values <1, synergism; 1-1.2, additive and >1.2, antagonism.
MTS growth inhibition assays are performed to evaluate the effectiveness of the test compounds alone and in combination with the fluoropyrimidine thymidylate synthase (TS) inhibitor 5-fluorouracil (5-FU) at inhibiting the growth of colorectal (HCT116 and SW620) cell line models. […] Simultaneous treatment with increasing concentrations of 5-FU and a test compound at fixed concentrations of 25 μmol/L is determined.

[2] = tested on: colorectal (HCT116), breast (MCF-7) and non-small cell lung (H1299, A549, H358 and H460) cell line models; experiment: Colony forming assay; format: cell-based; conditions: FUdR between 0.5 and 2.5 μmol/L; all cell lines evaluated
Description: Colony forming assay showing the ability of colon (SW620, HCT116), non-small cell lung (A549, H460, H1299 and H358) and breast (MCF7) cancer cells to survive and proliferate following transient 24 hour exposure to test compounds, FUdR and combinations are determined. Specifically, cells are seeded at densities between 50 and 100 cells/well in 24-well plates. Twenty-four hours later, cells are treated with increasing concentrations of a rtest compound, a fixed dose of FUdR and combinations of these. After 24 hours, drug is removed, cells are rinsed and allowed to outgrow for 10-14 days. At the conclusion of the outgrowth, cells are fixed in 60% ice cold methanol and stained with 0.1% crystal violet, scanned and counted. Data is presented as percentage of untreated controls (mean±SD). Fraction affected and combination indexes are calculated according to the method of Chou and Talalay where <1 is indicative of a synergistic drug interaction.
Colony forming assays are performed to evaluate the effectiveness of test compounds alone and in combination with the fluoropyrimidine thymidylate synthase (TS) inhibitor fluorodeoxyuridine (FUdR) at reducing cancer cell viability in colorectal (HCT116), breast (MCF-7) and non-small cell lung (H1299, A549, H358 and H460) cell line models. […]

[3] = target: recombinant human deoxyuridine nucleotidohydrolase (dUTPase) (Homo sapiens (Human), UniProt P33316); experiment: fluorescence-based dUTPase inhibition assay; format: biochemical; conditions: mean over three concentrations, typically 100, 50 and 25 μmol/L, compared to in-run positive control
Description: Recombinant human deoxyuridine nucleotidohydrolase (dUTPase) is expressed and purified as described in Ladner R D, Carr S A, Huddleston M J, McNulty D E, Caradonna S J. J Biol Chem. 1996 Mar. 29; 271(13):7752-7. All drugs stocks are aliquoted and diluted as appropriate prior to use. The oligonucelotide primer, templates and fluorophore- and quencher-labeled detection probes are synthesized by Integrated DNA Technologies (Coralville, Iowa), subjected to polyacrylamide gel electrophoresis purification and reconstituted in Omnipur sterile nuclease-free water (EMD Chemicals USA, Gibbstown N.J.) at a stock concentration of 100 μmol/L. The two non-emissive (dark) quenching molecules incorporated into the detection probes include the Iowa black fluorescein quencher (IBFQ; absorption max 531 nm) and ZEN (non-abbreviation; absorption max 532 nm). The fluorescent label utilized is 6-FAM (5′-carboxyfluorescein; excitation max.=494 nm, emission max.=520 nm). Probes are further diluted to a working stock of 10 μmol/L and aliquoted to avoid repeated freeze/thaw cycles. AmpliTaq Gold DNA Polymerase, GeneAmp 10×PCR Buffer 2, MgCl2 and MicroAmp Optical 96-well Reaction Plates are purchased from Applied Biosystems (Carlsbad, Calif.). dNTPs are purchased individually at stock concentrations of 100 mmol/L from New England Biolabs at HPLC-certified >99% purity (Ipswich, Mass.).
Reaction mixtures contained primer, probe and template at an equimolar final concentration of 0.4 μmol/L. Magnesium chloride (MgCl2) is included at a final concentration of 2 mmol/L. Non-limiting dNTPs are included in the reaction mix in excess at a final concentration of 100 μmol/L (dUTP/dTTP is excluded). AmpliTaq Gold DNA polymerase is added at 0.875 U/reaction, 2.5 μl of 10×PCR buffer 2 added and nuclease-free ddH2O added to a final reaction volume of 25 μl. For dUTP inhibition analysis, the volume of ddH2O is further modified to accommodate an additional 1 μl of dUTPase (10 ng/μl) and 1 μl of inhibitor or DMSO control. Thermal profiling and fluorescence detection is performed using a customized thermal program on board a Roche Lightcycler LC480 Instrument II. For analysis of dNTPs, the thermal profile consisted of an 8 min 37° C. step followed by a 10 min 95° C. step to ‘hot-start’ the Taq polymerase and a primer extension time of up to 30 min at 60° C. Raw fluorescence spectra for 6-FAM is measured at specified time intervals to follow assay progression on board a Roche LightCycler 480 Software Version 1.5 and exported and analyzed in Microsoft Excel (Microsoft, Redmond Wash.) and Prism (GraphPad Software, La Jolla Calif.). Fluorescence values for blank reactions (limiting dNTP omitted) are subtracted to give normalized fluorescence units (NFU) to account for background fluorescence.
Test compounds are screened in a fluorescence-based assay. The assay employs a DNA polymerase-based approach utilizing an oligonucleotide template with 3 distinct regions: a 3′ primer binding region, a mid-template dUTP/thymidine triphosphate (TTP) detection region and a 5′ 6-[…] (FAM)-labeled probe binding region that incorporates a black hole quenching moiety. During the reaction, the probe and primer hybridize to the oligonucleotide template to form the template:primer:probe complex. When Taq polymerase binds to the primer in the TPP complex and dUTP is present, successful extension of the nascent strand occurs and the inherent 5′ to 3′ exonuclease activity of Taq polymerase cleaves and displaces the 6-FAM-labeled probe in a 5′ to 3′ direction, releasing the 6-FAM fluorophore from its proximity to the three quenchers. This displacement effectively disrupts the Förster resonance energy transfer (FRET) and the resulting fluorescence detected upon excitation is directly proportional to the amount of the dUTP available in the assay for incorporation. […]

Chain of recombinant human deoxyuridine nucleotidohydrolase (dUTPase) (P33316 other isoform, or with tags, fused parts or gaps): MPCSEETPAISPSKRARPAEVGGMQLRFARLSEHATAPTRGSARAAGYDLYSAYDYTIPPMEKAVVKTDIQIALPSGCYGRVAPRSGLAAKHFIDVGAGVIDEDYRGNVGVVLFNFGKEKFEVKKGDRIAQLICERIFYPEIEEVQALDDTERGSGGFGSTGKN

SMILES	% relative inhibition vs. positive control [3]	also measured
O=c1[nH]cc(F)c(=O)[nH]1 [5-FU, 5-fluorouracil]		growth inhibition [1]: dose-dependent increases in growth inhibition
O=c1[nH]c(=O)n([C@H]2C[C@H](O)[C@@H](CO)O2)cc1F [FUdR, fluorodeoxyuridine]		colonies formed [2]: dose-dependent decreases in colonies formed
C[C@H]1C(=O)NC(=O)N1C/C=C/CCS(=O)(=O)NC1(c2ccc(F)c(OCC(C)(C)O)c2)CC1 [compound 122, (S,E)-N-(1-(4-fluoro-3-(2-hydroxy-2-methylpropoxy)phenyl)cyclopropyl)-5-(5-methyl-2,4-dioxoimidazolidin-1-yl)pent-3-ene-1-sulfonamide]	40%	
C[C@H]1C(=O)NC(=O)N1COCCCS(=O)(=O)NC1(c2ccc(F)c(OCC3CC3)c2)CC1 [compound 124, (S)—N-(1-(3-(cyclopropylmethoxy)-4-fluorophenyl)cyclopropyl)-3-((5-methyl-2,4-dioxoimidazolidin-1-yl)methoxy)propane-1-sulfonamide]	153%	
C[C@@H](NS(=O)(=O)CC/C=C/CC1CC(=O)NC1=O)c1ccc(F)c(OCC2CC2)c1 (stereo partly drawn) [compound 125, (E)-N—((R)-1-(3-(cyclopropylmethoxy)-4-fluorophenyl)ethyl)-5-(2,5-dioxopyrrolidin-3-yl)pent-3-ene-1-sulfonamide]	71%	
C[C@@H](NS(=O)(=O)CCCCCC1CC(=O)NC1=O)c1ccc(F)c(OCC2CC2)c1 (stereo partly drawn) [compound 126, N—((R)-1-(3-(cyclopropylmethoxy)-4-fluorophenyl)ethyl)-5-(2,5-dioxopyrrolidin-3-yl)pentane-1-sulfonamide]	152%	
C[C@H](NS(=O)(=O)CCCCCN1CC(=O)NC1=O)c1ccc(F)c(OCCC2CC2)c1 [compound 128, (S)—N-(1-(3-(2-cyclopropylethoxy)-4-fluorophenyl)ethyl)-5-(2,4-dioxoimidazolidin-1-yl)pentane-1-sulfonamide]	53%	
